Measured values as given in publication PMC12520178, “Turn-engineering tunes the conformational rigidity of β-hairpin AMPs in achieving membrane selectivity and killing drug-resistant ESKAPE pathogens” (Chemical Science, 2025).
Converted amounts (≈) assume the structure as drawn. Where two headings read alike, the source gives them in different places. Where a SMILES comes first, the peptide text is derived from it. Bridges are numbered along the chain shown (N, C = ends). [ ]: non-standard residue; d: D form. NMeR = CN[C@@H](CCCNC(=N)N)C(=O)O; dNMeR = CN[C@H](CCCNC(=N)N)C(=O)O

What was measured:
[1] = test system: Escherichia coli; type: cell-based
[2] = test system: Staphylococcus aureus; assay: microbe, parasite or virus in culture; type: cell-based
[3] = test system: Acinetobacter baumannii; type: cell-based
[4] = test system: Klebsiella pneumoniae; type: cell-based
[5] = test system: Pseudomonas aeruginosa; type: cell-based
[6] = test system: human red blood cells; settings: red cells of human

MIC90 [1] | MIC (μM) ec [1] | MIC (μM) sa [2] | MIC (μM) ab [3] | MIC (μM) kp [4] | MIC (μM) pa [5] | MIC (μM) ab ([3]; Acinetobacter baumannii, non-resistant, microbroth dilution, n = 5) | MIC (μM) kp ([4]; Klebsiella pneumoniae, non-resistant, microbroth dilution, n = 5) | MIC (μM) pa ([5]; Pseudomonas aeruginosa, non-resistant, microbroth dilution, n = 5) | Compound | MHC10 (μM), minimum hemolytic concentration [6] | MIC ([2]; Staphylococcus aureus, read-out: MIC (μM) sa)
0.5 µM (≈ 1.04 µg/mL) | – | – | – | – | – | – | – | – | CC(C)C[C@H](NC(=O)[C@H](CCCNC(=N)N)NC(=O)CNC(=O)CNC(=O)[C@@H](N)CCCNC(=N)N)C(=O)N[C@H]1CSSC[C@@H](C(=O)N[C@H](C(=O)NCC(=O)N[C@@H](CCCNC(=N)N)C(N)=O)C(C)C)NC(=O)[C@H](C(C)C)NC(=O)[C@@H]2CSSC[C@H](NC(=O)[C@H](Cc3ccc(O)cc3)NC1=O)C(=O)N[C@@H](CCCNC(=N)N)C(=O)N[C@H](C)C(=O)N(C)[C@@H](CCCNC(=N)N)C(=O)N[C@@H](Cc1ccccc1)C(=O)N2 [2a] (H-RGGRLCYCR[dA][NMeR]FCVCVGR-NH2; disulfide 6-15, 8-13) | 3.12 µM | –
0.4 µM (≈ 0.845 µg/mL) | – | – | – | – | – | – | – | – | CC(C)C[C@H](NC(=O)[C@H](CCCNC(=N)N)NC(=O)CNC(=O)CNC(=O)[C@@H](N)CCCNC(=N)N)C(=O)N[C@H]1CSSC[C@@H](C(=O)N[C@H](C(=O)NCC(=O)N[C@@H](CCCNC(=N)N)C(N)=O)C(C)C)NC(=O)[C@H](C(C)C)NC(=O)[C@@H]2CSSC[C@H](NC(=O)[C@H](Cc3ccc(O)cc3)NC1=O)C(=O)N[C@@H](CCCNC(=N)N)C(=O)N[C@H](C(C)C)C(=O)N(C)[C@@H](CCCNC(=N)N)C(=O)N[C@@H](Cc1ccccc1)C(=O)N2 [2b] (H-RGGRLCYCR[dV][NMeR]FCVCVGR-NH2; disulfide 6-15, 8-13) | 3.12 µM | –
0.3 µM (≈ 0.633 µg/mL) | – | – | – | – | – | – | – | – | CC(C)C[C@H](NC(=O)[C@H](CCCNC(=N)N)NC(=O)CNC(=O)CNC(=O)[C@@H](N)CCCNC(=N)N)C(=O)N[C@H](C(=O)N[C@@H](Cc1ccc(O)cc1)C(=O)N[C@H](C(=O)N[C@@H](CCCNC(=N)N)C(=O)N[C@@H](C(=O)N(C)[C@@H](CCCNC(=N)N)C(=O)N[C@@H](Cc1ccccc1)C(=O)N[C@H](C(=O)N[C@H](C(=O)N[C@H](C(=O)N[C@H](C(=O)NCC(=O)N[C@@H](CCCNC(=N)N)C(N)=O)C(C)C)[C@@H](C)O)C(C)C)[C@@H](C)O)C(C)C)[C@@H](C)O)[C@@H](C)O [2e] (H-RGGRLTYTR[dV][NMeR]FTVTVGR-NH2) | 50 µM | –
1.1 µM (≈ 2.76 µg/mL) | – | – | – | – | – | – | – | – | CC(C)[C@H](NC(=O)[C@H](CCCNC(=N)N)NC(=O)[C@H](Cc1ccccc1)NC(=O)[C@@H](NC(=O)[C@H](Cc1c[nH]c2ccccc12)NC(=O)[C@H](CCCNC(=N)N)NC(=O)[C@@H](N)CCCNC(=N)N)[C@@H](C)O)C(=O)N[C@H](C(=O)N[C@@H](Cc1ccc(O)cc1)C(=O)N[C@@H](C(=O)N(C)[C@@H](CCCNC(=N)N)C(=O)N[C@@H](Cc1ccccc1)C(=O)N[C@H](C(=O)N[C@@H](Cc1ccc(O)cc1)C(=O)N[C@@H](CCCNC(=N)N)C(=O)N[C@@H](CCCCN)C(=O)N[C@H](C(=O)N[C@@H](CCCNC(=N)N)C(N)=O)[C@@H](C)O)[C@@H](C)O)C(C)C)[C@@H](C)O [3e] (H-RRWTFRVTY[dV][NMeR]FTYRKTR-NH2) | 50 µM | –
0.2 µM (≈ 0.463 µg/mL) | – | – | – | – | – | – | – | – | CC[C@H](C)[C@H](NC(=O)[C@H](CCCNC(=N)N)N(C)C(=O)[C@H](NC(=O)[C@H](Cc1ccc(O)cc1)NC(=O)[C@@H](NC(=O)[C@@H](NC(=O)[C@H](CCCNC(=N)N)NC(=O)[C@H](Cc1ccccc1)NC(=O)[C@@H](NC(=O)[C@H](Cc1c[nH]c2ccccc12)NC(=O)[C@@H](N)CCCCN)[C@@H](C)O)C(C)C)[C@@H](C)O)C(C)C)C(=O)N[C@H](C(=O)N[C@@H](Cc1ccc(O)cc1)C(=O)N[C@@H](CCCNC(=N)N)C(=O)N[C@@H](CCCNC(=N)N)C(=O)N[C@H](C(=O)N[C@@H](CCCNC(=N)N)C(N)=O)[C@@H](C)O)[C@@H](C)O [4e] (H-KWTFRVTY[dV][NMeR]ITYRRTR-NH2) | 50 µM | –

More lines, now with the values behind:

Compound | MIC90 [1] | MIC (μM) ec [1] | MIC (μM) sa [2] | MIC (μM) ab [3] | MIC (μM) kp [4] | MIC (μM) pa [5] | MIC (μM) ab ([3]; Acinetobacter baumannii, non-resistant, microbroth dilution, n = 5) | MIC (μM) kp ([4]; Klebsiella pneumoniae, non-resistant, microbroth dilution, n = 5) | MIC (μM) pa ([5]; Pseudomonas aeruginosa, non-resistant, microbroth dilution, n = 5) | MHC10 (μM), minimum hemolytic concentration [6] | MIC ([2]; Staphylococcus aureus, read-out: MIC (μM) sa)
CC(C)[C@@H]1NC(=O)[C@@H](NC(=O)[C@H](Cc2c[nH]c3ccccc23)NC(=O)[C@@H](N)CCCNC(=N)N)CSSC[C@@H](C(=O)N[C@@H](Cc2c[nH]c3ccccc23)C(=O)O)NC(=O)[C@H](CCCNC(=N)N)NC(=O)[C@H](CCCNC(=N)N)NC(=O)[C@H](Cc2ccc(O)cc2)NC(=O)[C@H](CCCNC(=N)N)NC(=O)[C@H](C(C)C)NC(=O)[C@H](CCCNC(=N)N)N(C)C(=O)[C@@H](C)NC(=O)[C@H](C(C)C)NC(=O)[C@H](CCCNC(=N)N)NC(=O)[C@H](C)NC(=O)[C@H](Cc2ccc(O)cc2)NC1=O [1a] (H-RWCVYARV[dA][NMeR]VRYRRCW-OH; disulfide 3-16) | 0.4 µM (≈ 0.925 µg/mL) | 0.4 µM (≈ 0.925 µg/mL) | 0.8 µM (≈ 1.85 µg/mL) | 0.4 µM (≈ 0.925 µg/mL) | 0.8 µM (≈ 1.85 µg/mL) | 0.8 µM (≈ 1.85 µg/mL) | – | – | – | – | –
CC(C)[C@@H]1NC(=O)[C@@H](NC(=O)[C@H](Cc2c[nH]c3ccccc23)NC(=O)[C@@H](N)CCCNC(=N)N)CSSC[C@@H](C(=O)N[C@@H](Cc2c[nH]c3ccccc23)C(=O)O)NC(=O)[C@H](CCCNC(=N)N)NC(=O)[C@H](CCCNC(=N)N)NC(=O)[C@H](Cc2ccc(O)cc2)NC(=O)[C@H](CCCNC(=N)N)NC(=O)[C@H](C(C)C)NC(=O)[C@H](CCCNC(=N)N)N(C)C(=O)[C@@H](C(C)C)NC(=O)[C@H](C(C)C)NC(=O)[C@H](CCCNC(=N)N)NC(=O)[C@H](C)NC(=O)[C@H](Cc2ccc(O)cc2)NC1=O [1b] (H-RWCVYARV[dV][NMeR]VRYRRCW-OH; disulfide 3-16) | 0.2 µM (≈ 0.468 µg/mL) | 0.2 µM (≈ 0.468 µg/mL) | 0.4 µM (≈ 0.936 µg/mL) | 0.8 µM (≈ 1.87 µg/mL) | 0.4 µM (≈ 0.936 µg/mL) | 0.8 µM (≈ 1.87 µg/mL) | – | – | – | – | –
CC(C)[C@H](NC(=O)CNC(=O)[C@H](CCCNC(=N)N)NC(=O)[C@@H](NC(=O)[C@H](CCCNC(=N)N)NC(=O)[C@H](C)NC(=O)[C@H](Cc1ccc(O)cc1)NC(=O)[C@@H](NC(=O)[C@@H](NC(=O)[C@H](Cc1c[nH]c2ccccc12)NC(=O)[C@@H](N)CCCNC(=N)N)[C@@H](C)O)C(C)C)C(C)C)C(=O)N[C@@H](CCCNC(=N)N)C(=O)N[C@@H](Cc1ccc(O)cc1)C(=O)N[C@@H](CCCNC(=N)N)C(=O)N[C@@H](CCCNC(=N)N)C(=O)N[C@H](C(=O)N[C@@H](Cc1c[nH]c2ccccc12)C(=O)O)[C@@H](C)O [1c] (H-RWTVYARVRGVRYRRTW-OH) | 2.4 µM (≈ 5.48 µg/mL) | 2.4 µM (≈ 5.48 µg/mL) | 2.4 µM (≈ 5.48 µg/mL) | 3.12 µM (≈ 7.12 µg/mL) | 1.6 µM (≈ 3.65 µg/mL) | 12.5 µM (≈ 28.5 µg/mL) | – | – | – | – | –
CC(C)[C@H](NC(=O)[C@H](CCCNC(=N)N)NC(=O)[C@H](C)NC(=O)[C@H](Cc1ccc(O)cc1)NC(=O)[C@@H](NC(=O)[C@@H](NC(=O)[C@H](Cc1c[nH]c2ccccc12)NC(=O)[C@@H](N)CCCNC(=N)N)[C@@H](C)O)C(C)C)C(=O)N[C@H](C)C(=O)N(C)[C@@H](CCCNC(=N)N)C(=O)N[C@H](C(=O)N[C@@H](CCCNC(=N)N)C(=O)N[C@@H](Cc1ccc(O)cc1)C(=O)N[C@@H](CCCNC(=N)N)C(=O)N[C@@H](CCCNC(=N)N)C(=O)N[C@H](C(=O)N[C@@H](Cc1c[nH]c2ccccc12)C(=O)O)[C@@H](C)O)C(C)C [1d] (H-RWTVYARV[dA][NMeR]VRYRRTW-OH) | 0.4 µM (≈ 0.924 µg/mL) | 0.4 µM (≈ 0.924 µg/mL) | 0.6 µM (≈ 1.39 µg/mL) | 1.2 µM (≈ 2.77 µg/mL) | 0.4 µM (≈ 0.924 µg/mL) | 2.4 µM (≈ 5.54 µg/mL) | – | – | – | 100 µM | –
CC(C)[C@H](NC(=O)[C@H](CCCNC(=N)N)NC(=O)[C@H](C)NC(=O)[C@H](Cc1ccc(O)cc1)NC(=O)[C@@H](NC(=O)[C@@H](NC(=O)[C@H](Cc1c[nH]c2ccccc12)NC(=O)[C@@H](N)CCCNC(=N)N)[C@@H](C)O)C(C)C)C(=O)N[C@@H](C(=O)N(C)[C@@H](CCCNC(=N)N)C(=O)N[C@H](C(=O)N[C@@H](CCCNC(=N)N)C(=O)N[C@@H](Cc1ccc(O)cc1)C(=O)N[C@@H](CCCNC(=N)N)C(=O)N[C@@H](CCCNC(=N)N)C(=O)N[C@H](C(=O)N[C@@H](Cc1c[nH]c2ccccc12)C(=O)O)[C@@H](C)O)C(C)C)C(C)C [1e] (H-RWTVYARV[dV][NMeR]VRYRRTW-OH) | 0.6 µM (≈ 1.4 µg/mL) | 0.6 µM (≈ 1.4 µg/mL) | 2.6 µM (≈ 6.08 µg/mL) | 0.4 µM (≈ 0.935 µg/mL) | 1.6 µM (≈ 3.74 µg/mL) | 0.8 µM (≈ 1.87 µg/mL) | – | – | – | – | –
CC(C)[C@@H](NC(=O)[C@@H](CCCNC(=N)N)N(C)C(=O)[C@H](C)NC(=O)[C@H](NC(=O)[C@@H](CCCNC(=N)N)NC(=O)[C@@H](C)NC(=O)[C@@H](Cc1ccc(O)cc1)NC(=O)[C@H](NC(=O)[C@H](NC(=O)[C@@H](Cc1c[nH]c2ccccc12)NC(=O)[C@H](N)CCCNC(=N)N)[C@H](C)O)C(C)C)C(C)C)C(=O)N[C@H](CCCNC(=N)N)C(=O)N[C@H](Cc1ccc(O)cc1)C(=O)N[C@H](CCCNC(=N)N)C(=O)N[C@H](CCCNC(=N)N)C(=O)N[C@@H](C(=O)N[C@H](Cc1c[nH]c2ccccc12)C(=O)O)[C@H](C)O [1f] (H-[dR][dW][dT][dV][dY][dA][dR][dV]A[dNMeR][dV][dR][dY][dR][dR][dT][dW]-OH) | 0.4 µM (≈ 0.924 µg/mL) | 0.4 µM (≈ 0.924 µg/mL) | 0.8 µM (≈ 1.85 µg/mL) | 3.1 µM (≈ 7.16 µg/mL) | 3.1 µM (≈ 7.16 µg/mL) | 3.1 µM (≈ 7.16 µg/mL) | – | – | – | 100 µM | –
CN[C@H](CC(C)C)C(=O)N[C@H]1C(=O)N[C@@H](CC(N)=O)C(=O)N[C@H]2C(=O)N[C@H]3C(=O)N[C@H](C(=O)N[C@H](C(=O)O)c4cc(O)cc(O)c4-c4cc3ccc4O)[C@H](O)c3ccc(c(Cl)c3)Oc3cc2cc(c3O[C@@H]2O[C@H](CO)[C@@H](O)[C@H](O)[C@H]2O[C@H]2C[C@](C)(N)[C@H](O)[C@H](C)O2)Oc2ccc(cc2Cl)[C@H]1O [Vancomycin, reference compound] | – | – | – | – | – | – | – | – | – | – | 0.6 µM (≈ 0.87 µg/mL)
Polymyxin B [reference compound] | – | – | – | – | – | – | 0.8 µM | 3.0 µM | 0.8 µM | – | –
